From the supplement of paper PMC10307832

Key:
Assay in all cases: relative viability (nuclei count vs DMSO), 5 days (fraction); higher = more cells survive
[1] = compound: CC[C@H](Nc1ncnc2[nH]cnc12)c1nc2cccc(F)c2c(=O)n1-c1ccccc1 [Idelalisib] + Cc1nc(Nc2ncc(C(=O)Nc3c(C)cccc3Cl)s2)cc(N2CCN(CCO)CC2)n1 [Dasatinib] (partner 0.075 µM)
How it was run: (§1)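 Relative viability divides the nuclei count in treated wells by that in vehicle wells. Lung cancer cell lines were seeded in 1536-well plates, dosed by pin tool the next day, and fixed and stained after 5 days in one step with final 0.05% Triton X-100, 1% formaldehyde and 1 ug/ml Hoechst. Dosing was a single drug or a fixed anchor-drug dose plus five library-drug doses (not always all listed) in √10 steps, and values are medians of duplicate plates imaged at 4×.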

[2] = compound: Nc1nc2[nH]cc(CCc3ccc(C(=O)N[C@@H](CCC(=O)O)C(=O)O)cc3)c2c(=O)[nH]1 [Pemetrexed] + CS(=O)(=O)N1CCN(Cc2cc3nc(-c4cccc5[nH]ncc45)nc(N4CCOCC4)c3s2)CC1 [Pictilisib] (partner 1 µM)
How it was run: as §1

[3] = compound: Nc1nc2[nH]cc(CCc3ccc(C(=O)N[C@@H](CCC(=O)O)C(=O)O)cc3)c2c(=O)[nH]1 [Pemetrexed] + O=C(CCCCCCC(=O)Nc1ccccc1)NO [Vorinostat] (partner 1 µM)
How it was run: as §1

[4] = compound: CC[C@H](Nc1ncnc2[nH]cnc12)c1nc2cccc(F)c2c(=O)n1-c1ccccc1 [Idelalisib] + Cc1cc(Nc2cc(N3CCN(C)CC3)nc(Sc3ccc(NC(=O)C4CC4)cc3)n2)n[nH]1 [Tozasertib] (partner 0.1 µM)
How it was run: as §1

Cell Line	relative viability ([1]; first compound 0.04 µM)	relative viability ([1]; first compound 0.1265 µM)	relative viability ([1]; first compound 0.4 µM)	relative viability ([1]; first compound 4 µM)	relative viability ([2]; first compound 0.002 µM)	relative viability ([2]; first compound 0.006325 µM)	relative viability ([2]; first compound 0.02 µM)	relative viability ([2]; first compound 0.06325 µM)	relative viability ([2]; first compound 0.2 µM)	relative viability ([3]; first compound 0.002 µM)	relative viability ([3]; first compound 0.006325 µM)	relative viability ([3]; first compound 0.02 µM)	relative viability ([3]; first compound 0.06325 µM)	relative viability ([3]; first compound 0.2 µM)	relative viability ([4]; first compound 0.04 µM)	relative viability ([4]; first compound 0.1265 µM)	relative viability ([4]; first compound 0.4 µM)	relative viability ([4]; first compound 4 µM)	relative viability ([1]; first compound 1.265 µM)	relative viability ([4]; first compound 1.265 µM)
NCI-H23	0.808	0.828	0.552	0.825	0.395	0.416	0.538	0.516	0.408	0.464	0.592	0.77	0.713	0.62	0.39	0.528	0.363	0.334	–	–
NCI-H322M	0.284	0.246	0.248	0.263	0.29	0.449	0.553	0.49	0.567	0.84	0.957	0.888	0.893	0.58	0.516	0.532	0.466	0.453	0.251	0.44
NCI-H358	0.167	0.165	0.13	0.173	0.338	0.264	0.29	0.243	0.21	0.616	0.655	0.414	0.167	0.122	0.106	0.0937	0.113	0.116	0.143	0.088
NCI-H441	0.681	0.687	0.585	0.467	0.46	0.463	0.595	0.322	0.268	0.693	0.788	0.763	0.695	0.262	0.725	0.685	0.728	0.591	0.639	0.536
NCI-H460	0.571	0.535	0.405	0.428	0.233	0.396	0.383	0.313	0.121	–	0.683	0.784	0.57	0.0651	0.626	0.397	0.436	0.255	0.5	0.447
NCI-H520	0.201	0.158	0.126	0.147	0.247	0.254	0.349	0.322	0.275	0.671	0.7	0.718	0.681	0.709	0.468	0.4	0.406	0.405	0.209	0.405
NCI-H596	0.586	0.631	0.493	0.549	0.399	0.348	0.436	0.348	0.344	0.707	0.577	0.576	0.468	0.385	0.818	1.01	0.73	0.815	0.575	0.855
NCI-H647	0.194	0.203	–	0.127	0.283	0.449	0.355	0.382	0.202	0.387	0.479	0.594	0.458	0.171	0.313	0.394	–	0.109	0.173	0.0094
NCI-H650	0.498	0.438	0.432	0.394	0.831	0.756	0.861	0.786	0.851	0.378	0.552	–	0.427	0.453	0.748	0.767	0.635	0.69	0.481	0.803
NCI-H661	1.1	0.969	0.673	0.673	0.487	0.402	0.438	–	0.424	0.761	0.72	0.821	0.8	0.745	0.414	0.358	0.391	0.408	1.08	0.358
NCI-H727	0.461	0.397	–	0.386	0.398	0.399	0.415	0.378	0.369	1.18	1.12	1.26	1.16	1.06	0.669	0.533	0.713	0.559	0.353	0.652
NCI-H838	0.248	0.307	0.219	0.345	0.443	0.392	0.532	0.267	0.248	0.72	0.727	0.781	0.661	0.308	0.268	0.288	0.282	0.257	0.283	0.258
NCI-H1355	0.631	0.791	0.504	0.518	0.294	0.383	0.377	0.481	0.428	0.526	0.603	0.667	0.599	0.62	0.534	0.611	0.442	0.386	0.561	0.488
NCI-H1395	0.417	0.369	0.375	0.366	0.824	0.58	0.679	0.54	0.574	0.513	0.871	0.959	0.7	0.738	0.817	0.77	0.771	0.62	0.385	0.767
NCI-H1437	0.378	0.46	0.307	0.478	0.297	0.422	0.389	0.267	0.193	0.853	0.813	0.806	0.596	0.364	0.333	0.43	0.411	0.397	0.453	0.384
NCI-H1650	0.322	0.321	0.24	0.23	0.545	0.559	0.658	0.333	0.226	0.521	0.671	0.634	0.443	0.234	0.312	0.405	0.36	0.304	0.315	0.33

Cell Line	relative viability ([1]; first compound 0.04 µM)	relative viability ([1]; first compound 0.1265 µM)	relative viability ([1]; first compound 0.4 µM)	relative viability ([1]; first compound 4 µM)	relative viability ([2]; first compound 0.002 µM)	relative viability ([2]; first compound 0.006325 µM)	relative viability ([2]; first compound 0.02 µM)	relative viability ([2]; first compound 0.06325 µM)	relative viability ([2]; first compound 0.2 µM)	relative viability ([3]; first compound 0.002 µM)	relative viability ([3]; first compound 0.006325 µM)	relative viability ([3]; first compound 0.02 µM)	relative viability ([3]; first compound 0.06325 µM)	relative viability ([3]; first compound 0.2 µM)	relative viability ([4]; first compound 0.04 µM)	relative viability ([4]; first compound 0.1265 µM)	relative viability ([4]; first compound 0.4 µM)	relative viability ([4]; first compound 4 µM)	relative viability ([1]; first compound 1.265 µM)	relative viability ([4]; first compound 1.265 µM)
NCI-H1651	0.305	0.314	0.318	0.332	0.627	0.49	0.658	0.554	0.556	0.553	0.562	0.642	0.44	0.548	0.673	0.623	0.615	0.605	0.518	0.593
NCI-H1666	0.79	0.863	0.676	0.773	0.373	0.481	0.347	0.497	0.306	1.01	0.95	1.03	0.924	0.863	0.662	0.594	0.78	0.57	0.79	0.639
NCI-H1734	0.468	0.487	0.338	0.374	0.461	0.457	0.489	0.475	0.376	0.794	0.725	0.931	0.778	0.708	0.264	0.246	0.253	0.246	0.454	0.254
NCI-H1755	0.399	0.456	0.312	0.338	0.327	0.416	0.532	0.45	0.318	0.716	0.813	0.776	0.751	0.624	0.541	0.616	0.483	0.489	0.366	0.488
NCI-H1793	0.379	0.372	0.294	0.323	0.303	0.299	0.341	0.247	0.311	0.613	0.792	0.69	0.986	0.796	0.344	0.311	0.222	0.225	0.374	0.229
NCI-H1915	0.425	0.316	0.284	0.3	0.786	0.933	1.13	0.929	0.957	0.419	0.484	0.526	0.463	0.549	0.55	0.406	0.374	0.402	0.357	0.407
NCI-H1944	0.241	0.205	0.169	0.202	0.307	0.345	0.337	0.345	0.327	0.43	0.487	0.565	0.592	0.531	0.272	0.229	0.219	0.211	0.196	0.224
NCI-H1975	0.363	0.436	0.263	0.293	–	0.3	0.299	0.271	0.221	0.666	0.721	0.699	0.588	0.308	0.7	0.794	0.671	0.565	0.402	0.718
NCI-H1993	0.785	0.562	0.51	0.522	0.899	0.97	0.819	0.743	0.882	0.832	0.863	0.701	0.67	0.612	0.628	0.54	0.519	0.574	0.51	0.583
NCI-H2009	0.335	0.302	0.266	0.197	0.785	0.763	0.824	0.744	0.723	0.631	0.7	0.776	0.681	0.654	0.736	0.852	0.667	0.567	0.252	0.756
NCI-H2023	0.625	0.549	0.438	0.375	0.136	0.231	0.237	0.218	0.117	0.306	0.595	0.676	0.372	0.15	0.355	0.284	0.363	0.253	0.487	0.321
NCI-H2085	0.244	0.19	0.188	0.19	0.503	0.425	0.506	0.548	0.507	0.763	0.775	0.897	0.817	0.806	0.915	0.779	0.8	0.692	0.246	0.641
NCI-H2087	0.966	0.906	0.696	0.514	0.692	0.79	0.938	0.67	0.581	0.662	0.751	1.06	0.591	0.757	0.249	0.272	0.212	0.235	1.03	0.216
NCI-H2126	0.548	0.664	0.522	0.557	0.451	0.479	0.494	0.487	0.436	0.638	0.719	0.777	0.798	0.688	0.838	0.905	0.765	0.626	0.62	0.813
NCI-H2170	0.661	0.473	0.536	0.554	0.303	0.307	0.242	0.305	0.276	0.564	0.813	0.899	0.823	0.45	0.796	0.706	0.69	0.633	0.383	0.727
NCI-H2228	0.562	0.586	0.408	0.524	0.194	0.427	0.379	0.35	0.238	0.807	0.493	0.749	0.413	0.296	0.292	0.216	0.223	0.239	0.507	0.271
